# Test results as given in PubChem BioAssay (NCI).
#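 How tested: cells in 96-well plates exposed to compound for 48 hours at five concentrations. The concentration for 50% growth inhibition is given as GI50. TGI denotes the concentration required for complete inhibition of growth.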
# Experiments:
# Experiment in all cases: DTP human tumour cell line panel, 48 h
# [1] = test system: SK-OV-3 ovarian
# [2] = test system: MDA-MB-231 breast
# [3] = test system: PC-3 prostate
# [4] = test system: 786-0 renal
# [5] = test system: SF-268 CNS
# [6] = test system: HOP-92 NSCLC
# [7] = test system: HCT-116 colon
# [8] = test system: KM12 colon
# [9] = test system: SK-MEL-5 melanoma
# [10] = test system: CAKI-1 renal
# [11] = test system: CCRF-CEM leukemia
# [12] = test system: NCI-H226 lung
# [13] = test system: LOX IMVI melanoma
# [14] = test system: T-47D breast
# [15] = test system: A549 NSCLC
# [16] = test system: MOLT-4 leukemia
# [17] = test system: M14 melanoma
# [18] = test system: NCI-H522 lung
# [19] = test system: SF-295 CNS
# [20] = test system: EKVX NSCLC
# [21] = test system: SR leukemia
# [22] = test system: SF-539 CNS
# [23] = test system: U251 CNS
# [24] = test system: K-562 leukemia
# [25] = test system: DU-145 prostate
# [26] = test system: SNB-19 CNS
# [27] = test system: IGROV1 ovarian
# [28] = test system: A498 renal
# [29] = test system: OVCAR-4 ovarian
# [30] = test system: HOP-62 NSCLC
# [31] = test system: OVCAR-5 ovarian
# [32] = test system: HCC-2998 colon
# [33] = test system: SK-MEL-28 melanoma
# [34] = test system: SNB-75 CNS
# [35] = test system: NCI-H460 lung
# [36] = test system: ACHN renal
# [37] = test system: COLO 205 colon
# [38] = test system: RXF 393 renal
# [39] = test system: HS 578T breast
# [40] = test system: BT-549 breast
# [41] = test system: TK-10 renal
# [42] = test system: OVCAR-3 ovarian
# [43] = test system: HCT-15 colon
# [44] = test system: SK-MEL-2 melanoma
# [45] = test system: MDA-MB-468 breast
# [46] = test system: SW-620 colon
# [47] = test system: UO-31 renal
# [48] = test system: HT29 colon
# [49] = test system: OVCAR-8 ovarian
# [50] = test system: SN12C renal
# [51] = test system: UACC-257 melanoma
# [52] = test system: MALME-3M melanoma
# [53] = test system: HL-60(TB) leukemia
# [54] = test system: MDA-MB-435
# [55] = test system: MCF7 breast
# [56] = test system: RPMI-8226 leukemia
# [57] = test system: NCI-H23 lung
# [58] = test system: UACC-62 melanoma
structure (smiles),measurement,setting,value
COc1ccccc1[C@H]1C(C(=O)c2ccc(O)cc2)C2(N[C@@H]1c1ccccc1)C(=O)Nc1ccc(Br)cc12 (stereo partly specified),GI50,[1],8.08 µM
same,TGI,[1],16.3 µM
same,GI50,[2],6.39 µM
same,TGI,[2],13.3 µM
same,GI50,[3],4.08 µM
same,TGI,[3],13.9 µM
same,GI50,[4],8.4 µM
same,TGI,[4],16.2 µM
same,GI50,[5],7.05 µM
same,TGI,[5],17.1 µM
same,GI50,[6],6.52 µM
same,TGI,[6],14.7 µM
same,GI50,[7],7.03 µM
same,TGI,[7],15.4 µM
same,GI50,[8],7.73 µM
same,TGI,[8],16.9 µM
same,GI50,[9],9.09 µM
same,TGI,[9],17.1 µM
same,GI50,[10],2940 nM
same,TGI,[10],10.7 µM
same,GI50,[11],7.57 µM
same,TGI,[11],24.4 µM
same,GI50,[12],5.1 µM
same,TGI,[12],14.9 µM
same,GI50,[13],7.63 µM
same,TGI,[13],18.8 µM
same,GI50,[14],6.67 µM
same,TGI,[14],16.6 µM
same,GI50,[15],6.04 µM
same,TGI,[15],13.6 µM
same,GI50,[16],4.42 µM
same,TGI,[16],23.2 µM
same,GI50,[17],7.35 µM
same,TGI,[17],15.4 µM
same,GI50,[18],2770 nM
same,TGI,[18],10.4 µM
same,GI50,[19],6.63 µM
same,TGI,[19],14.1 µM
same,GI50,[20],7.61 µM
same,TGI,[20],16.5 µM
same,GI50,[21],5.57 µM
same,TGI,[21],18.4 µM
same,GI50,[22],8.07 µM
same,TGI,[22],15.4 µM
same,GI50,[23],6.62 µM
same,TGI,[23],13.9 µM
same,GI50,[24],10.7 µM
same,TGI,[24],43.1 µM
same,GI50,[25],9.39 µM
same,TGI,[25],18 µM
same,GI50,[26],7.62 µM
same,TGI,[26],14.8 µM
same,GI50,[27],4.56 µM
same,TGI,[27],11.8 µM
same,GI50,[28],7.26 µM
same,TGI,[28],15 µM
same,GI50,[29],7.19 µM
same,TGI,[29],16.4 µM
same,GI50,[30],8.27 µM
same,TGI,[30],16.7 µM
same,GI50,[31],7.47 µM
same,TGI,[31],14.7 µM
same,GI50,[32],6.55 µM
same,TGI,[32],14 µM
same,GI50,[33],8.02 µM
same,TGI,[33],15.4 µM
same,GI50,[34],5.98 µM
same,TGI,[34],13.6 µM
same,GI50,[35],6.91 µM
same,TGI,[35],15 µM
same,GI50,[36],7.72 µM
same,TGI,[36],15 µM
same,GI50,[37],8.67 µM
same,TGI,[37],18.2 µM
same,GI50,[38],5.63 µM
same,TGI,[38],13.8 µM
same,GI50,[39],8.2 µM
same,TGI,[39],23.2 µM
same,GI50,[40],6.03 µM
same,TGI,[40],13.4 µM
same,GI50,[41],7.34 µM
same,TGI,[41],15.2 µM
same,GI50,[42],5.35 µM
same,TGI,[42],12.4 µM
same,GI50,[43],8.02 µM
same,TGI,[43],18.1 µM
same,GI50,[44],8.01 µM
same,TGI,[44],15.8 µM
same,GI50,[45],2220 nM
same,TGI,[45],8.66 µM
same,GI50,[46],8.34 µM
same,TGI,[46],16.8 µM
same,GI50,[47],6.07 µM
same,TGI,[47],12.8 µM
same,GI50,[48],7.91 µM
same,TGI,[48],17.6 µM
same,GI50,[49],8.3 µM
same,TGI,[49],16.7 µM
same,GI50,[50],2650 nM
same,TGI,[50],9.49 µM
same,GI50,[51],7.81 µM
same,TGI,[51],15.5 µM
same,GI50,[52],8.42 µM
same,TGI,[52],16.1 µM
same,GI50,[53],12.2 µM
same,TGI,[53],39.3 µM
same,GI50,[54],7.39 µM
same,TGI,[54],15.1 µM
same,GI50,[55],6.66 µM
same,TGI,[55],19.1 µM
same,GI50,[56],8.42 µM
same,TGI,[56],47.7 µM
same,GI50,[57],8.25 µM
same,TGI,[57],16.7 µM
same,GI50,[58],7.15 µM
same,TGI,[58],14.2 µM
